In patent US8778837B2, “Use of active substance combinations for controlling animal pests” (priority 2007, dated 2014):
Values joined by “and” are separate entries in the source; they are usually repeats but may differ in a detail not shown here. Equal values may be shown once.

Legend:
Format in all cases: in vivo
Spodoptera frugiperda = Spodoptera frugiperda test (cabbage leaf dip)
Excerpt: (§1) The activity to be expected for a given combination of two active substances can be calculated as follows (cf. Colby, S. R., “Calculating Synergistic and Antagonistic Responses of Herbicide Combinations”, Weeds 15, pages 20-22, 1967):
(§2) • X means the degree of destruction expressed in % of the untreated control when using active substance A at an application rate of m ppm or m g/ha, • Y means the degree of destruction expressed in % of the untreated control when using active substance B at an application rate of n ppm or n g/ha, and • E means the degree of destruction expressed in % of the untreated control when employing active substances A and B at application rates of m and n ppm or m and n g/ha, then
(§3) If the actual insecticidal degree of destruction is greater than calculated, the combination is superadditive regarding its destruction, i.e. a synergistic effect is present. In this case, the degree of destruction which is actually observed must exceed the value calculated on the basis of the above formula for the expected degree of destruction (E).
Spodoptera frugiperda Test
(§4) Solvent: 7 parts by weight of dimethylformamide
(§5) Emulsifier: 2 parts by weight of alkylaryl polyglycol ether
(§6) To prepare a suitable preparation of active substance, 1 part by weight of active substance is mixed with the stated amounts of solvent and emulsifier, and the concentrate is diluted to the desired concentration with emulsifier-containing water.
Cabbage leaves (Brassica oleracea) are treated by being dipped into the active substance preparation of the desired concentration and are populated with armyworm caterpillars (Spodoptera frugiperda) while the leaves are still moist.
(§7) After the desired period of time, the destruction is determined in %. Here, 100% means that all the caterpillars have been destroyed; 0% means that no caterpillars have been destroyed. The destruction rates which have been determined are entered in the Colby formula (see sheet 1).

Myzus persicae = Myzus persicae test (cabbage leaf dip)
Excerpt: as §1, §2, §3, §4, §5, §6
Cabbage leaves (Brassica oleracea) which are severely infested with the green peach aphid (Myzus persicae) are treated by being dipped into the active substance preparation of the desired concentration.
After the desired period of time, the destruction is determined in %. Here, 100% means that all the aphids have been destroyed; 0% means that no aphids have been destroyed. The destruction rates which have been determined are entered in the Colby formula (see sheet 1).

[1] = tested on: Phaedon cochleariae larvae; assay: Phaedon cochleariae larvae test (cabbage leaf dip)
Excerpt: as §1, §2, §3
Phaedon Cochleariae Larvae Test
as §4, §5, §6
Cabbage leaves (Brassica oleracea) are treated by being dipped into the active substance preparation of the desired concentration and are populated with mustard beetle larvae (Phaedon cochleariae) while the leaves are still moist.
After the desired period of time, the destruction is determined in %. Here, 100% means that all the beetle larvae have been destroyed; 0% means that no beetle larvae have been destroyed. The destruction rates which have been determined are entered in the Colby formula (see sheet 1).

[2] = tested on: Plutella xylostella, sensitive strain; assay: Plutella xylostella test (sensitive strain, cabbage leaf dip)
Excerpt: as §1, §2, §3
Plutella-Xylostella Test (Sensitive Strain)
as §4, §5, §6
Cabbage leaves (Brassica oleracea) are treated by being dipped into the active substance preparation of the desired concentration and are populated with diamondback moth caterpillars (Plutella xylostella, sensitive strain) while the leaves are still moist.
as §7

Question: What does the source list for CN/C(=N\[N+](=O)[O-])NCc1cnc(Cl)s1 [Clothianidin, clothianidin]?
Answer: Destruction in % after 3 d (Spodoptera frugiperda; 4 ppm): 95%; Destruction in % after 6 d (Myzus persicae; 0.8 ppm): 55%; Destruction in % after 6 d ([1]; 4 ppm): 65%; Destruction in % after 6 d ([2]; 20 ppm): 25%

Question: How did the “Destruction in % after 6 d” value (Spodoptera frugiperda; 0.8 ppm) turn out when N#Cc1nn(-c2c(Cl)cc(C(F)(F)F)cc2Cl)c(N)c1[S+]([O-])C(F)(F)F (stereo not shown) [Fipronil, fipronil] was run?
Answer: The value was 5%.

Question: And the “Destruction in % after 6 d” value (Myzus persicae; 100 ppm)?
Answer: The value was 65%.

Question: How did the “Destruction in % after 6 d” value (Myzus persicae; 0.8 ppm) turn out when O=[N+]([O-])NC1=NCCN1Cc1ccc(Cl)nc1 [Imidacloprid] was run?
Answer: Its value is 75%.

Question: What about the “Destruction in % after 6 d” value ([1]; 20 ppm) of the same molecule?
Answer: The value was 75%.

Question: How did the “Destruction in % after 3 d” value (Spodoptera frugiperda; 500 ppm) turn out when N#Cc1ccccc1NC(=O)c1snc(Cl)c1Cl [Isotianil, 3,4-dichloro-2′-cyano-1,2-thiazole-5-carboxanilide] was run?
Answer: Its value is 10%.

Question: What about the “Destruction in % after 1 d” value (Myzus persicae; 500 ppm) of the same molecule?
Answer: Its value is 0%.

Question: What about the “Destruction in % after 6 d” value (Myzus persicae; 500 ppm) of the same molecule?
Answer: Its value is 10% and 0%.

Question: What about the “Destruction in % after 6 d” value ([1]; 500 ppm) of the same molecule?
Answer: The value was 0%.

Question: What about the “Destruction in % after 6 d” value ([2]; 500 ppm) of the same molecule?
Answer: The value was 0%.

Question: Which results are given for N#C/N=C1\SCCN1Cc1ccc(Cl)nc1 [Thiacloprid]?
Answer: Destruction in % after 6 d (Myzus persicae; 0.8 ppm): 45%; Destruction in % after 6 d ([1]; 4 ppm): 0%; Destruction in % after 6 d ([2]; 20 ppm): 45%

Question: CN1COCN(Cc2cnc(Cl)s2)/C1=N\[N+](=O)[O-] [Thiamethoxam] was tested. Which “Destruction in % after 6 d” value (Spodoptera frugiperda; 20 ppm) did it give?
Answer: Its value is 70%.

Question: And the “Destruction in % after 1 d” value (Myzus persicae; 0.8 ppm)?
Answer: The value was 75%.

Question: What about the “Destruction in % after 6 d” value ([1]; 20 ppm) of the same molecule?
Answer: The value was 80%.
